Reference: publication PMC11280343, “Rubus urticifolius Compounds with Antioxidant Activity, and Inhibition Potential against Tyrosinase, Melanin, Hyaluronidase, Elastase, and Collagenase” (Pharmaceuticals, 2024)
Values joined by “and” are separate entries in the source; they are usually repeats but may differ in a detail not shown here. Equal values may be shown once. Read-outs that look alike come from different tables or passages of the source. Each block holds one molecule with its values, some of them ahead of it. Numbered stars: 1 amine (or outer) side, 2 acyl side, 3 side chain; on linkers, the order of the positions; unused ones are H or OH. Bridge positions count the residues as written; N and C are the ends. Square brackets hold non-standard residues; d marks the D form. Peptide text beside a SMILES is read from it. I, II: the chains in the order shown. Actinocin(9to1) = Cc1c2oc3c(C)ccc(C(=O)[*:1])c3nc-2c(C(=O)[*:2])c(N)c1=O; NMeV = CN[C@H](C(=O)O)C(C)C; Sar = CNCC(=O)O

Columns and labels:
[1] = tested on: HEK001, WS1, HMCB, and THP-1 cell lines; assay: Viability assay, positive control value of the method (cell line not stated); assay type: cell-based; details: Homo sapiens
Method: (§1) Cell viability was evaluated using a colorimetric assay in 96-well plates, employing 3-amino-7-dimethylamino-2-methylphenazine hydrochloride salt reagent (NR, Merck, Cat. No. 553-24-2, St. Louis, MO, USA).
(§2) HEK001, WS1, HMCB, and THP-1 cell lines were cultured in 96-well plates at 37 °C with 5% CO2 until > 90% confluency was achieved (1 × 10^6 cells/well). Subsequently, the cultures were treated with sample dilutions (100–0.20 μg/mL or μM) for 72 h at 37 °C with 5% CO2 in phenol red-free RPMI. The supernatant was then discarded and the cells were washed with phosphate-buffered saline (PBS) before being incubated with […] NR (50 μg/mL; 173 μM) for 3 h at 37 °C with 5% CO2. NR labelling was performed after DMSO treatment. After incubation, the labelled sample dilutions were rapidly washed with a fixative solution composed of 1% calcium chloride (CaCl2 Merck, Cat. No. 10043-52-4, St. Louis, MO, USA) and 0.5% formaldehyde solution (≥36.0% in H2O Merck, Cat. No. 50-00-0, St. Louis, MO, USA), then diluted with 100 μL of the NR extraction solution. Finally, the plates were read at 540 nm using a microplate reader (Anthos 2020, version 2.0.5, Biochrom Ltd., Cambridge, UK).

[2] = NR viability assay, HMCB; assay type: cell-based, Homo sapiens; details: human; HMCB, NR assay, 72 h; read-out: Viability CC50
Method: (§3) The HEK001 (Homo sapiens cutaneous keratinocyte, CCL-2404), WS1 (Homo sapiens cutaneous fibroblast, CRL-1502), HMCB (Homo sapiens cutaneous melanoma, CRL-9607), and THP-1 (Homo sapiens peripheral blood monocyte, TIB-202) cell lines used in this study were obtained from the American Type Culture Collection (ATCC, Manassas, VA, USA). Cultivated in a Roswell Park Memorial Institute (RPMI) 1640 medium (RPMI 1640 Merck, Cat. No. R7755, New York, NY, USA) supplemented with 2 mM L-glutamine (≥99% Merck, Cat. No. 56-85-9), 10% fetal bovine serum (FBS Merck, Cat. No. TMS-016, St. Louis, MO, USA), and 10,000 units of penicillin and 10 mg streptomycin/mL (Merck, Cat. No. P4333, St. Louis, MO, USA) in culture flasks, the cells were maintained in an incubator under normoxic conditions (20–21% O2) and a humidified atmosphere (5% CO2 at 37 °C).
(§4) Mother solutions of samples (extracts, fractions, and compounds) were prepared at a concentration of […] using dimethyl sulfoxide (DMSO ≥ 99.9% Merck, Cat. No. 67-68-5, St. Louis, MO, USA) as the solvent. From these mother solutions, dilutions were prepared at concentrations ranging from 100 to 0.20 μg/mL or μM in culture medium containing 0.5% DMSO. Additionally, a negative control group consisting solely of culture medium with 0.5% DMSO was included to assess its potential cytotoxic effect on the cells.
as §1, §2

[3] = NR viability assay, HEK001; assay type: cell-based, Homo sapiens; details: human; HEK001, NR assay, 72 h; read-out: Viability CC50
Method: as §3, §4, §1, §2

[4] = NR viability assay, WS1; assay type: cell-based, Homo sapiens; details: human; WS1, NR assay, 72 h; read-out: Viability CC50
Method: as §3, §4, §1, §2

[5] = NR viability assay, THP-1; assay type: cell-based, Homo sapiens; details: human, THP-1, NR assay, 72 h; read-out: Viability CC50
Method: as §3, §4, §1, §2

[6] = biological target: T1, hyaluronidase (Bos taurus, UniProt Q2YDK3); details: cited from earlier work; for Inhibition of active hyaluronidase: 2 mM
T1 sequence (Q2YDK3 36-553): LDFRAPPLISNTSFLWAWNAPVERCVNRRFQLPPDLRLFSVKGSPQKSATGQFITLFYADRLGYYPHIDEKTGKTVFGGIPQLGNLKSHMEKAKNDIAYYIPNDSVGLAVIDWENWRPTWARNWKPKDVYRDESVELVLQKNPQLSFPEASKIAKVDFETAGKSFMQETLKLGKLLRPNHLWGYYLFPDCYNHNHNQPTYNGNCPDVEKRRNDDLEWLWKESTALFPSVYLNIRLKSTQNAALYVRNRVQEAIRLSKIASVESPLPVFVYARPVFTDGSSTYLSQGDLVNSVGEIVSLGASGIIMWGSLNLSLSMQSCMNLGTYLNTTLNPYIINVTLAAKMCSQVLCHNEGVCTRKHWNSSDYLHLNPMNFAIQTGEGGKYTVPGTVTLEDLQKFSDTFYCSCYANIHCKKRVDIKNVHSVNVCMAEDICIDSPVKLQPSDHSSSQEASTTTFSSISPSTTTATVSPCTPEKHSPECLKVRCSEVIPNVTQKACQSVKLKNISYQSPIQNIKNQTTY

[7] = tested on: Nrf2; assay: Nrf2 activation assay, HEK001; assay type: cell-based; details: Homo sapiens, HEK001, 72 h; read-out: Activation of Nrf2 production EC50
Method: (§5) To determine the antioxidant response of the samples (at the same concentration as in the viability assay), Nrf2 activation assay was used, following the protocol carried out by Apaza Ticona et al.. Cells were cultured in 96-well plates (1 × 10^6 cells/well). […] Absorbance was measured at 540 nm using a microplate reader.

[8] = tested on: Nrf2; assay: Nrf2 activation assay, HMCB; assay type: cell-based; details: Homo sapiens, 72 h, read-out: Activation of Nrf2 production EC50
Method: as §5

[9] = tested on: Nrf2; assay: Nrf2 activation assay, THP-1; assay type: cell-based; details: Homo sapiens, THP-1, 72 h; read-out: Activation of Nrf2 production EC50
Method: as §5

[10] = tested on: Nrf2; assay: Nrf2 activation assay, WS1; assay type: cell-based; details: Homo sapiens; WS1, 72 h; read-out: Activation of Nrf2 production EC50
Method: as §5

[11] = tested on: Nrf2; assay: Nrf2 activation assay, positive control value of the method (cell line not stated); assay type: cell-based; details: Homo sapiens
Method: as §5

[12] = tested on: collagenase; assay: Collagenase inhibitory assay; assay type: biochemical
Method: A fixed weight of 1 mg of azo dye-impregnated collagen was measured in the test tubes. Subsequently, 800 μL of 0.1 M Tris-HCl (pH 7) and 100 μL of the samples at the same concentrations used as in the viability assay were added to each test tube. Next, 100 μL of collagenase (200 units/mL) was immediately mixed into the mixture and the tubes were incubated at 43 °C for 1 h. After incubation, the test tubes were centrifuged at 3000 rpm for 10 min. The supernatant from each tube was transferred into 96-well plates and the absorbance of each supernatant was measured at 550 nm using a microplate reader.

[13] = biological target: T2, elastase from porcine pancreas (Sus scrofa, UniProt P00772); assay: Elastase-inhibitory effect assay; assay type: biochemical
T2 construct: elastase from porcine pancreas (7.5 units/mL); from tissue; host or cells: porcine pancreas
T2 sequence (P00772 27-266): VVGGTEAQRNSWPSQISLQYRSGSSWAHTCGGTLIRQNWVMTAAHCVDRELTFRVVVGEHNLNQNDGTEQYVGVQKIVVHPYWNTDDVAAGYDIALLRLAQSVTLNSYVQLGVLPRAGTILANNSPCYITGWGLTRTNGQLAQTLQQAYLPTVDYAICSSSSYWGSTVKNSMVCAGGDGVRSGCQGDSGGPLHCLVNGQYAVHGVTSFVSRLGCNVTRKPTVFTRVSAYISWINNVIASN
Method: The elastase-inhibitory effect was evaluated, implementing the protocol adapted from Tu and Tawata.
A mixture containing N-succinyl-Ala-Ala-Ala-p-nitroanilide (AAAPVN, Merck, Cat. No. 52299-14-6, St. Louis, MO, USA) elastase substrate in 0.1232 M Tris-HCl buffer solution (pH 8) was prepared to achieve a concentration of 1.015 mM. This elastase substrate was combined with 10 μL of the test samples at the same concentrations used as in the viability assay in 96-well plates and pre-incubated at room temperature (25 ± 5 °C) for 10 min. Subsequently, the reaction was initiated by adding 10 μL of elastase from porcine pancreas (7.5 units/mL) in Tris buffer solution to the pre-incubated mixtures. Absorbance was then measured at 410 nm using a microplate reader.

[14] = tested on: NF-κB; assay: NF-κB inhibition assay (LPS-stimulated), WS1; assay type: cell-based; details: Homo sapiens, 72 h, read-out: NF-κB Inhibition at 72 h IC50 ± SEM
Method: as §5, with “anti-inflammatory activity” for “antioxidant response”, “NF-κB inhibition” for “Nrf2 activation”, “450” for “540”

[15] = tested on: NF-κB; assay: NF-κB inhibition assay (LPS-stimulated), THP-1; assay type: cell-based; details: Homo sapiens, THP-1, 72 h, read-out: NF-κB Inhibition at 72 h IC50 ± SEM
Method: as §5, with “anti-inflammatory activity” for “antioxidant response”, “NF-κB inhibition” for “Nrf2 activation”, “450” for “540”

[16] = tested on: NF-κB; assay: NF-κB inhibition assay, positive control value of the method (cell line not stated); assay type: cell-based; details: Homo sapiens
Method: as §5, with “anti-inflammatory activity” for “antioxidant response”, “NF-κB inhibition” for “Nrf2 activation”, “450” for “540”

[17] = tested on: NF-κB; assay: NF-κB inhibition assay (LPS-stimulated), HEK001; assay type: cell-based; details: Homo sapiens, HEK001, 72 h, read-out: NF-κB Inhibition at 72 h IC50 ± SEM
Method: as §5, with “anti-inflammatory activity” for “antioxidant response”, “NF-κB inhibition” for “Nrf2 activation”, “450” for “540”

[18] = tested on: NF-κB; assay: NF-κB inhibition assay (LPS-stimulated), HMCB; assay type: cell-based; details: Homo sapiens, 72 h, read-out: NF-κB Inhibition at 72 h IC50 ± SEM
Method: as §5, with “anti-inflammatory activity” for “antioxidant response”, “NF-κB inhibition” for “Nrf2 activation”, “450” for “540”

[19] = tested on: melanin production in HMCB cells; assay: Melanin content assay; assay type: cell-based; details: Homo sapiens; HMCB cells, 12 h; read-out: Inhibitory activity of melanin production IC50
Method: as §5, with “anti-melanogenic activity” for “antioxidant response”, “melanin inhibition” for “Nrf2 activation”, “HMCB cells” for “Cells”, “405” for “540”

[20] = equivalent value for the compounds
[21] = value for the extracts and fractions
[22] = inhibition percentage 'at an IC50', concentration not otherwise stated

Compound: Cc1c2oc3c(C)ccc(C(=O)N[C@@H]4C(=O)N[C@H](C(C)C)C(=O)N5CCC[C@H]5C(=O)N(C)CC(=O)N(C)[C@@H](C(C)C)C(=O)O[C@@H]4C)c3nc-2c(C(=O)N[C@@H]2C(=O)N[C@H](C(C)C)C(=O)N3CCC[C@H]3C(=O)N(C)CC(=O)N(C)[C@@H](C(C)C)C(=O)O[C@@H]2C)c(N)c1=O [ACTD, Actinomycin D, reference compound] (I: T[dV]P[Sar][NMeV] / II: T[dV]P[Sar][NMeV]; ester I:1-I:C, II:1-II:C; linker I:N-II:N via Actinocin(9to1))
IC50 [1, 20]: 0.008 µM | IC50 [1, 21]: 0.01 µg/mL | CC50 at 72 h [2]: 0.0161 µg/mL and 7 nM | CC50 at 72 h [3]: 0.0184 µg/mL and 9 nM | CC50 at 72 h [4]: 0.0173 µg/mL and 8 nM | CC50 at 72 h [5]: 0.0192 µg/mL and 9 nM

Compound: O=C(O)/C=C/c1ccccc1 [trans-cinnamic acid]
Hyaluronidase inhibition [6]: more than 60%

EC50 [7]: 5e-05 µg/mL and 0.08 nM | EC50 [8]: 7e-05 µg/mL and 0.1 nM | EC50 [9]: 8e-05 µg/mL and 0.13 nM | EC50 [10]: 6e-05 µg/mL and 0.09 nM | EC50 [11, 20]: 0.00011 µM | EC50 [11, 21]: 0.07 ng/mL
Compound: COC(=O)[C@]12CCC(C)(C)C[C@H]1[C@H]1C(=O)C=C3[C@@]4(C)C=C(C#N)C(=O)C(C)(C)[C@@H]4CC[C@@]3(C)[C@]1(C)CC2 [CDDO-Me, 2-Cyano-3,12-dioxo-oleana-1,9(11)-dien-28-oic acid methyl ester, reference compound]

Compound: COc1ccc(/C=C/C(=O)Nc2ccccc2C(=O)O)cc1OC [Tranilast]
Inhibition of active hyaluronidase ([6]; activator added): 50% | Inhibition of active hyaluronidase [6]: 75%

Compound: O=C(O[C@@H]1Cc2c(O)cc(O)cc2O[C@@H]1c1cc(O)c(O)c(O)c1)c1cc(O)c(O)c(O)c1 [EGCG, Epigallocatechin gallate, reference compound]
Collagenase Inhibition (%) [12, 22]: 98.81 ± 1.42% and 95.29 ± 2.09% | Anti-Collagenase IC50 ([12]; marked (*)): 114 µg/mL and 114.04 ± 3.07 µg/mL | IC50 ([12]; read-out: Anti-Collagenase IC50): 250 µM and 251 µM | Elastase Inhibition (%) [13, 22]: 98.08 ± 1.74% and 94.44 ± 1.30% | Anti-Elastase IC50 ([13]; marked (*)): 114 µg/mL and 114.38 ± 3.07 µg/mL | IC50 ([13]; read-out: Anti-Elastase IC50): 250 µM

Compound: CC1=C(O)C(=O)C=C2C1=CC=C1[C@@]2(C)CC[C@@]2(C)[C@@H]3C[C@](C)(C(=O)O)CC[C@]3(C)CC[C@]12C [Celastrol, reference compound]
IC50 [14]: 7.41 µM and 3.29 µg/mL | IC50 [15]: 7.62 µM and 3.35 µg/mL | IC50 [16, 20]: 7.41 µM | IC50 [16, 21]: 3.34 µg/mL | IC50 [17]: 7.57 µM and 3.33 µg/mL | IC50 [18]: 7.36 µM and 3.27 µg/mL

IC50 [19]: 16.4 µM
Compound: O=c1cc(CO)occ1O [Kojic acid, reference compound]
